Data as given in patent US20020037311A1, “Transdermal delivery of lasofoxifene” (priority 2000, published 2002).
Several values for one entry are separate records, joined by “and”; a condition that tells them apart may be missing. Equal entries are not always repeated. Where two headings read alike, the source gives them in different places.

Columns and labels:
[1] = ovariectomized rats; cited from earlier work
[2] = compared with estradiol therapy; cited from earlier work
[3] = In vitro skin flux, hydroalcoholic gels (liquid reservoir), finite occluded dose, modified Franz diffusion cells; format: in vitro ADME, human; details: for Average Daily Flux of CP-336,156 over 7 Days: Example 3 gel EtOH/H2O/Gly/GMO/ML 50/15/30/2.5/2.5% v/v, CP-336,156 tartrate salt 2 mg/ml; for Average Daily Flux of CP-336,156 over 6 Days: Example 4 gel EtOH/H2O/Gly/GMO/LA 30/38/30/1/1% v/v (two-phase dispersion); for Average Daily Flux of CP-336,156 over 6 Days / Average Daily flux over 7 Days, Unenhanced 0% GMO / Average Daily flux over 7 Days, 0.03% GMO / Average Daily flux over 7 Days, 0.06% GMO / Average Daily flux over 7 Days, 0.12% GMO: CP-336,156 tartrate salt 6 mg/ml; for Average Daily flux over 7 Days, Unenhanced 0% GMO: Example 5 gel EtOH/IPA/H2O/Gly 26.25/8.75/35/30% v/v; for Average Daily flux over 7 Days, 0.03% GMO / Average Daily flux over 7 Days, 0.06% GMO / Average Daily flux over 7 Days, 0.12% GMO: Example 5 gel EtOH/IPA/H2O/Gly; for Average Daily flux over 7 Days, 0.03% GMO: 0.03% v/v glycerol monooleate; for Average Daily flux over 7 Days, 0.06% GMO: 0.06% v/v glycerol monooleate; for Average Daily flux over 7 Days, 0.12% GMO: 0.12% v/v glycerol monooleate (cloudy dispersion); for E = Enhancement Factor = Average Daily Flux from Enhanced Formulation/Average Daily Flux from Unenhanced Control: Example 5 gel
Description: Hydroalcoholic gels were prepared on a 10 ml scale as follows. Ethyl alcohol (190 proof ethanol), water, glycerin, enhancer and drug were combined in the appropriate proportions and mixed for several hours. The gelling agent (hydroxypropylcellulose) was added and the solution was mixed briefly at high shear, then mixed at low shear until a gel was formed.
(§1) In vitro skin flux studies were conducted using human cadaver epidermal membrane in modified Franz non-jacketed diffusion cells. The epidermal membrane (stratum corneum and epidermis) was separated from whole skin (epidermal membrane and dermis) by the method of Kligman and Christopher (Arch. Dermatol. 88:702 (1963)). This method involves the exposure of the full-thickness skin to water at 60.degree C. for a time period of 60 seconds. After this period, the epidermal membrane was gently peeled off the dermis and stored for later use in aluminum foil at −5° C.
Permeation experiments with hydroalcoholic gels were performed using finite occluded doses. The occluded dose is an appropriate in vitro model for the application of a transdermal patch drug delivery system containing a liquid or gel reservoir.
Occluded dosing experiments were set-up according to the following procedure. Prior to skin permeation experiments, the epidermal membrane was cut to an appropriate size and placed between the two halves of the diffusion cell with the epidermal side facing the receiver compartment. The receiver compartment was filled with an appropriate solution then the diffusion cell was placed in a circulating water bath calibrated to maintain the temperature of the skin surface at 32° C. and allowed to hydrate overnight. After hydration, a sample of the gel (75 µl) was pipetted into a cavity created by placing a polyethylene washer over the stratum corneum surface. This cavity was covered with an occlusive backing film which was clamped in place.
(§2) The following sampling procedure was used for all dosage forms. At predetermined sampling time points, the entire contents of the receiver compartment were collected for drug quantitation and the receiver compartment was filled with fresh solution, taking care to eliminate any air bubbles at the skin/solution interface. […]

[4] = postmenopausal women; cited from earlier work
[5] = In vitro skin flux, adhesive matrix systems, modified Franz diffusion cells; format: in vitro ADME, human; details: for Average Daily Flux of CP-336,156 over 7 Days: Example 1 matrix TSR 58 adhesive/triacetin/CP-336,156 84/10/6% w/w; for Cumulative Permeation of CP-336,156 over 24 Hours, Enhanced 1.5% w/w NaLG: Example 2 matrix Morstik 214, 3% w/w CP-336,156 tartrate salt + 1.5% w/w sodium lauroyl glycolate; for Cumulative Permeation of CP-336,156 over 24 Hours, Unenhanced: Example 2 matrix Morstik 214 water-based adhesive, 3% w/w CP-336,156 tartrate salt, no enhancer; for Enhancement Factor Q24 enhanced/Q24 unenhanced: Example 2 matrix, 1.5% w/w NaLG vs unenhanced
Description: Pressure sensitive adhesive matrix systems prepared according to the teachings of U.S. Pat. No. 5,952,000, incorporated herein by reference. First, the solids content of the adhesive solution (water or organic solvent based) was determined by placing a known weight of solution in a weighed aluminum dish and evaporating the solvents overnight in a 70. degree. C. convection oven. The solid adhesive content of the solution was calculated by dividing the adhesive solid weight after drying by the initial total solution weight. Next, a weighed quantity of adhesive solution was added to a glass bottle and the drug substance, permeation enhancer, and other excipients were weighed and added to the adhesive solution in a quantity necessary to achieve the desired dry matrix film composition. The solution containing the adhesive polymer, drug substance, and other excipients as necessary was then mixed overnight. After mixing, approximately 8 ml of the solution was dispensed on a silanized polyester release liner and film cast using a casting knife with a gap size appropriate to achieve a final dried thickness of approximately 0.05 mm. The cast film was dried in a 70° C. convection oven until all solvents had evaporated to yield a dried matrix (15 minutes for organic solvent based adhesives, 30 minutes for water emulsion based adhesives). Finally, an 0.08 mm thick occlusive polyethylene backing film was laminated onto the dried adhesive matrix, and these systems were then used to conduct in vitro skin flux experiments as described below.
as §1
Prior to each permeation experiment with a matrix system, the matrix system was cut into a circular sample of 0.7 cm^2 area and the silanized release liner was removed. The adhesive was affixed to the stratum corneum side of the thawed epidermal membrane which was then cut to an appropriate size and clamped in place between the two halves of the diffusion cell with the stratum corneum facing the donor compartment. The receiver compartment was filled with water or an aqueous solution appropriate to maintain sink conditions for the drug. All receiver solutions included 0.02% (w/w) sodium azide (NaN3) to inhibit bacterial growth. The diffusion cell was placed in a temperature controlled circulating water bath calibrated to maintain the surface temperature of the skin at 32° C. The receiver compartment was constantly stirred by a magnetic stir-bar in the receiver compartment agitated by a magnetic stirring module placed under the water bath.
as §2

[6] = female and male rats; cited from earlier work
[7] = male rats; cited from earlier work
[8] = second skin source (name not given), 5 cells
[9] = third skin source (name not given), 5 cells

Structure (SMILES): Oc1ccc2c(c1)CC[C@H](c1ccccc1)[C@@H]2c1ccc(OCCN2CCCC2)cc1 [CP-336,156, lasofoxifene]
- bone loss [1]: prevent bone loss
- uterine-stimulating effects [2]: without the uterine-stimulating effects
- Average Daily Flux of CP-336,156 over 7 Days ([3]; All Skins, Mean ± SEM): 21.6 ± 2.3 ug/cm^2/day
- Average Daily Flux of CP-336,156 over 7 Days ([3]; Skin 3A, 8 cells): 174 ± 7.7 ug/cm^2/day
- Average Daily Flux of CP-336,156 over 7 Days ([3]; Skin 3B, 4 cells): 15.3 ± 8.7 ug/cm^2/day
- Average Daily Flux of CP-336,156 over 7 Days ([3]; Skin 3C, 8 cells): 23.9 ± 11.0 ug/cm^2/day
- Average Daily Flux of CP-336,156 over 7 Days ([3]; Skin 3D, 4 cells): 27.9 ± 2.2 ug/cm^2/day
- Average Daily Flux of CP-336,156 over 7 Days ([3]; Skin 3E, 4 cells): 21.2 ± 9.9 ug/cm^2/day
- Average Daily Flux of CP-336,156 over 7 Days ([3]; Skin 3F, 4 cells): 15.4 ± 7.2 ug/cm^2/day
- Average Daily Flux of CP-336,156 over 7 Days ([3]; Skin 3G, 4 cells): 30.3 ± 4.9 ug/cm^2/day
- Average Daily Flux of CP-336,156 over 6 Days ([3]; All Skins, Mean ± SEM): 38.3 ± 3.3 ug/cm^2/day
- Average Daily Flux of CP-336,156 over 6 Days ([3]; Skin 4A, 5 cells): 42.4 ± 15.5 ug/cm^2/day
- Average Daily Flux of CP-336,156 over 6 Days ([3]; Skin 4B, 5 cells): 36.3 ± 5.2 ug/cm^2/day
- Average Daily Flux of CP-336,156 over 6 Days ([3]; Skin 4C, 5 cells): 36.2 ± 14.9 ug/cm^2/day
- Average Daily flux over 7 Days, Unenhanced 0% GMO ([3]; All Skins): 11.8 ug/cm^2/24 h
- Average Daily flux over 7 Days, Unenhanced 0% GMO ([3]; Skin 5A, n = 2-5 cells): 6.4 ug/cm^2/24 h
- Average Daily flux over 7 Days, Unenhanced 0% GMO ([3]; Skin 5B, n = 2-5 cells): 17.4 ug/cm^2/24 h
- Average Daily flux over 7 Days, Unenhanced 0% GMO ([3]; Skin 5C, n = 2-5 cells): 11.6 ug/cm^2/24 h
- Average Daily flux over 7 Days, 0.03% GMO ([3]; All Skins): 33.0 ug/cm^2/24 h
- Average Daily flux over 7 Days, 0.03% GMO ([3]; Skin 5A, n = 2-5 cells): 7.1 ug/cm^2/24 h
- Average Daily flux over 7 Days, 0.03% GMO ([3]; Skin 5B, n = 2-5 cells): 69.5 ug/cm^2/24 h
- Average Daily flux over 7 Days, 0.03% GMO ([3]; Skin 5C, n = 2-5 cells): 22.4 ug/cm^2/24 h
- Average Daily flux over 7 Days, 0.06% GMO ([3]; All Skins): 35.6 ug/cm^2/24 h
- Average Daily flux over 7 Days, 0.06% GMO ([3]; Skin 5A, n = 2-5 cells): 11.6 ug/cm^2/24 h
- Average Daily flux over 7 Days, 0.06% GMO ([3]; Skin 5B, n = 2-5 cells): 74.9 ug/cm^2/24 h
- Average Daily flux over 7 Days, 0.06% GMO ([3]; Skin 5C, n = 2-5 cells): 20.3 ug/cm^2/24 h
- Average Daily flux over 7 Days, 0.12% GMO ([3]; All Skins): 41.8 Ug/cm^2/24 h
- Average Daily flux over 7 Days, 0.12% GMO ([3]; Skin 5A, n = 2-5 cells): 16.8 Ug/cm^2/24 h
- Average Daily flux over 7 Days, 0.12% GMO ([3]; Skin 5B, n = 2-5 cells): 85.2 Ug/cm^2/24 h
- Average Daily flux over 7 Days, 0.12% GMO ([3]; Skin 5C, n = 2-5 cells): 23.6 Ug/cm^2/24 h
- E = Enhancement Factor = Average Daily Flux from Enhanced Formulation/Average Daily Flux from Unenhanced Control ([3]; 0.03% GMO vs 0% GMO, All Skins): 2.34 ± 0.37
- E = Enhancement Factor = Average Daily Flux from Enhanced Formulation/Average Daily Flux from Unenhanced Control ([3]; 0.03% GMO vs 0% GMO, Skin 5A): 1.12
- E = Enhancement Factor = Average Daily Flux from Enhanced Formulation/Average Daily Flux from Unenhanced Control ([3]; 0.03% GMO vs 0% GMO, Skin 5B): 3.99
- E = Enhancement Factor = Average Daily Flux from Enhanced Formulation/Average Daily Flux from Unenhanced Control ([3]; 0.03% GMO vs 0% GMO, Skin 5C): 1.93
- E = Enhancement Factor = Average Daily Flux from Enhanced Formulation/Average Daily Flux from Unenhanced Control ([3]; 0.06% GMO vs 0% GMO, All Skins): 2.62 ± 0.43
- E = Enhancement Factor = Average Daily Flux from Enhanced Formulation/Average Daily Flux from Unenhanced Control ([3]; 0.06% GMO vs 0% GMO, Skin 5A): 1.81
- E = Enhancement Factor = Average Daily Flux from Enhanced Formulation/Average Daily Flux from Unenhanced Control ([3]; 0.06% GMO vs 0% GMO, Skin 5B): 4.30
- E = Enhancement Factor = Average Daily Flux from Enhanced Formulation/Average Daily Flux from Unenhanced Control ([3]; 0.06% GMO vs 0% GMO, Skin 5C): 1.74
- E = Enhancement Factor = Average Daily Flux from Enhanced Formulation/Average Daily Flux from Unenhanced Control ([3]; 0.12% GMO vs 0% GMO, All Skins): 3.18 ± .36
- E = Enhancement Factor = Average Daily Flux from Enhanced Formulation/Average Daily Flux from Unenhanced Control ([3]; 0.12% GMO vs 0% GMO, Skin 5A): 2.62
- E = Enhancement Factor = Average Daily Flux from Enhanced Formulation/Average Daily Flux from Unenhanced Control ([3]; 0.12% GMO vs 0% GMO, Skin 5B): 4.89
- E = Enhancement Factor = Average Daily Flux from Enhanced Formulation/Average Daily Flux from Unenhanced Control ([3]; 0.12% GMO vs 0% GMO, Skin 5C): 2.03
- bone loss [4]: prevent bone loss
- Average Daily Flux of CP-336,156 over 7 Days ([5]; All Skins, Mean ± SEM): 8.6 ± 1.2 µg/cm²/day
- Average Daily Flux of CP-336,156 over 7 Days ([5]; Skin 1B, 4 diffusion cells): 5.7 ± 0.8 µg/cm²/day
- Average Daily Flux of CP-336,156 over 7 Days ([5]; Skin 1C, 8 diffusion cells): 9.2 ± 2.9 µg/cm²/day
- Average Daily Flux of CP-336,156 over 7 Days ([5]; Skin 1D, 4 diffusion cells): 13.4 ± 7.8 µg/cm²/day
- Average Daily Flux of CP-336,156 over 7 Days ([5]; Skin 1E, 4 diffusion cells): 10.2 ± 3.4 µg/cm²/day
- Average Daily Flux of CP-336,156 over 7 Days ([5]; Skin 1F, 4 diffusion cells): 5.1 ± 1.1 µg/cm²/day
- Average Daily Flux of CP-336,156 over 7 Days ([5]; Skin 1G, 4 diffusion cells): 11.4 ± 2.4 µg/cm²/day
- Average Daily Flux of CP-336,156 over 7 Days ([5]; Skin IA, 7 diffusion cells): 5.5 ± 3.4 µg/cm²/day
- Cumulative Permeation of CP-336,156 over 24 Hours, Enhanced 1.5% w/w NaLG ([5]; All Skins Mean ± SEM): 1.42 ± 1.05 μg/cm^2/24 h
- Cumulative Permeation of CP-336,156 over 24 Hours, Enhanced 1.5% w/w NaLG ([5]; Skin 2A, 5 cells): 0.30 ± 0.12 μg/cm^2/24 h
- Cumulative Permeation of CP-336,156 over 24 Hours, Enhanced 1.5% w/w NaLG [5, 8]: 3.51 ± 0.93 μg/cm^2/24 h
- Cumulative Permeation of CP-336,156 over 24 Hours, Enhanced 1.5% w/w NaLG [5, 9]: 0.46 ± 0.16 μg/cm^2/24 h
- Cumulative Permeation of CP-336,156 over 24 Hours, Unenhanced ([5]; All Skins Mean ± SEM): 0.99 ± 0.85 μg/cm^2/24 h
- Cumulative Permeation of CP-336,156 over 24 Hours, Unenhanced ([5]; Skin 2A, 5 cells): 0.13 ± 0.09 μg/cm^2/24 h
- Cumulative Permeation of CP-336,156 over 24 Hours, Unenhanced [5, 8]: 2.70 ± 1.08 μg/cm^2/24 h
- Cumulative Permeation of CP-336,156 over 24 Hours, Unenhanced [5, 9]: 0.15 ± 0.09 μg/cm^2/24 h
- Enhancement Factor Q24 enhanced/Q24 unenhanced ([5]; All Skins Mean ± SEM): 2.2 and 2.21 ± 0.51
- Enhancement Factor Q24 enhanced/Q24 unenhanced ([5]; Skin 2A): 2.28
- Enhancement Factor Q24 enhanced/Q24 unenhanced ([5]; second skin source (name not given)): 1.30
- Enhancement Factor Q24 enhanced/Q24 unenhanced ([5]; third skin source (name not given)): 3.06
- total serum cholesterol [6]: decreased
- effect on prostate [7]: did not affect prostate
